The target in one data set is T1, FAAH (Homo sapiens, UniProt O00519).
T1 construct: 25 μL of human liver microsomes (31.3 μg); from tissue; host or cells: human liver microsomes
T1 sequence (O00519 1-579): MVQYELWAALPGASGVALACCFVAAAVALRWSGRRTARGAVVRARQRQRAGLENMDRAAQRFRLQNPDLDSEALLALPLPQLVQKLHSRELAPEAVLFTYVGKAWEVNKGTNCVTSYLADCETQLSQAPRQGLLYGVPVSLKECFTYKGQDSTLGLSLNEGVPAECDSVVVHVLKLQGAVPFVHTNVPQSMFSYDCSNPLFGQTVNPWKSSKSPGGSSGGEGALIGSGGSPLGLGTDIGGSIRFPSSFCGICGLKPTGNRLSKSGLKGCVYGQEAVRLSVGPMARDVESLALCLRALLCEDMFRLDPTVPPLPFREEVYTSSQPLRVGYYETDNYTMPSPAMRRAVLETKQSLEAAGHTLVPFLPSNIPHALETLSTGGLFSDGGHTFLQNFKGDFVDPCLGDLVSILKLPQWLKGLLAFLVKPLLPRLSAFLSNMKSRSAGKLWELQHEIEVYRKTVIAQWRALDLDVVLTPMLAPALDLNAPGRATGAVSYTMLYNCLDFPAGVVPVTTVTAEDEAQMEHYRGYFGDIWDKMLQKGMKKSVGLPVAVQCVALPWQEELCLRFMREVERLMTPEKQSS
Kind of data set: FAAH LC-MS/MS screening assay (anandamide hydrolysis by human liver microsomes). It is filed as biochemical. As to conditions: for anandamide hydrolysis allowed (percent hydrolysis normalized to control): inhibitor at 30 nM, 60 minute incubation at 37° C. The protocol:
For determining IC50 values for candidate FAAH inhibitor compounds, the above method is used with an adjusted FAAH inhibitor concentration. In the IC50 assay, the FAAH inhibitor is added at a concentration range of approximately 3 μM to 0.03 nM. The final calculation of IC50 is determined by first transforming the concentrations by “X=log(X)” and then analyzing the data with a sigmoidal dose-response curve (no constraints) using GraphPad Prism version 4.00 for Windows (GraphPad Software, San Diego Calif. USA, www.graphpad.com).
In general terms: Microsomes from liver hold many membrane-bound enzymes, among them those of drug oxidation.

Data set [1] relates to CFA-induced mechanical hyperalgesia in rats. Kind of data set: Complete Freund's Adjuvant (CFA)-induced mechanical hyperalgesia (paw withdrawal threshold). In kind it is in vivo, male Wistar rats. The following applies: 60 mg/kg, p.o.; 24 h after intraplantar CFA; reading 2 h post drug administration. Here is the method:
In this rat model of inflammatory pain, inflammation is induced by intraplantar injection of complete Freund's adjuvant (CFA) into the hind paw. The associated mechanical hyperalgesia is quantified by measuring the reduction in paw withdrawal threshold (PWT) to a mechanical compression of the paw.
Experiments were conducted using male Wistar rats weighing 130-180 g. In brief, the rats' paw withdrawal threshold (PWT) to a mechanical compression of the hind paw was measured (baseline reading) using a Randall-Sellito apparatus (Ugo Basile). A cut-off of 200 g was employed to minimise tissue damage to the paw. The animals were then briefly anaesthetised with isoflurane (˜2%) and complete Freund's adjuvant (0.1 ml per paw) was injected subcutaneously (s.c.) into the plantar surface of the left hind paw. The animals were then returned to their home cage and left for the inflammation to develop.
Twenty four hours after CFA injection, PWT's were re-measured (0 min); only those animals developing hyperalgesia (>20 g decrease in PWT compared to their baseline readings) were included for drug assessment. Rats were then dosed orally with either vehicle or test compound. Readings were then made at 2 h post drug administration.

The nature of data set [2]: Pharmacokinetics in rats following oral administration as a suspension; blood concentrations of compound, acetaminophen and fatty acid ethanolamides. It is filed as in vivo. The following applies: 10 mg/kg oral gavage. Here is the method: Potential FAAH inhibitors are formulated for oral (p.o.), intraperitoneal (i.p.) or intravenous (i.v.) delivery to rats. Formulated compounds are administered and the animals were sacrificed at pre-determined time points post dose. At sacrifice, blood samples are collected into EDTA plasma tubes and whole brains were snap frozen in liquid nitrogen. EDTA plasma was isolated from blood samples after centrifugation. Brain and plasma samples are stored at −80° C. prior to analysis. All samples (brain and plasma) are analyzed for the concentrations of test compound (FAAH inhibitor), metabolites of the test compound (such as, for example, acetaminophen, propofol, NSAID, or NSAID metabolite) and endogenous fatty acid ethanolamide levels (including anandamide, oleoylethanolamide, and palmitoylethanolamide) by LC-MS/MS according to the invention. Levels of these compounds are compared across time points to determine pharmacokinetic properties of the test compound and partial pharmacological effects of inhibiting FAAH activity (including changes of fatty acid ethanolamide levels).
The pharmacokinetic properties of 4-acetamidophenyl cyclohexylnethylcarbamate were assessed in rats following oral administration as a suspension. […] The suspension of 4-acetamidophenyl cyclohexylmethylcarbamate was administered to rats at a dose of 10 mg/kg of 4-acetamidophenyl cyclohexylmethylcarbamate via oral gavage. Blood samples were extracted from the rats. Samples were analyzed for concentrations of OEA, PEA, AEA, 4-acetamidophenyl cyclohexylmethylcarbamate and acetaminophen (in-vivo metabolite). Baseline levels of OEA and PEA were 4.18 and 4.17 ng/mL, respectively.

For `CC(=O)Nc1ccc(OC(=O)NC2CCCCC2)cc1` [4-acetamidophenyl cyclohexylcarbamate], the “anandamide hydrolysis allowed (percent hydrolysis normalized to control)” value on FAAH is listed as 56%.

Broadly, the IC50 is the point on the concentration scale where inhibition reaches its midpoint. High values mean weaker potency, low ones greater potency. Usually AUC stands for the area under the concentration-time curve, a measure of exposure. A lower AUC goes with less exposure. By Cmax is commonly meant the peak of the concentration-time curve. The term Tmax denotes the time from dosing to the highest level. On to `CC(=O)Nc1ccc(OC(=O)NCC2CCCCC2)cc1` [4-acetamidophenyl cyclohexylmethylcarbamate], for which the “reversal of mechanical hyperalgesia” value in data set [1] is listed as “complete reversal”. Besides, the “anandamide hydrolysis allowed (percent hydrolysis normalized to control)” value at FAAH amounted to 37%. The compound further displayed an IC50 against FAAH (inhibitor range approximately 3 μM to 0.03 nM) of 14.6 nM. Besides, in data set [2], the “AUC of AEA” value was determined as 0 ng·h/mL, the “Tmax of AEA” value was found to be 0 h, the “Tmax of OEA” value was determined as 90 min and the “Tmax of PEA” value was determined as 60 min. Further, in data set [2] (baseline OEA 4.18 ng/mL), the “AUC of OEA” value came out at 40 ng·h/mL and the “Cmax of OEA” value came to 7.55 ng/mL. Also, in data set [2] (baseline PEA 4.17 ng/mL), the “AUC of PEA” value was found to be 43 ng·h/mL and the “Cmax of PEA” value is 8.85 ng/mL. In data set [2] (rat, plasma, suspension), the AUC came to 6780 ng·h/mL, the peak concentration (Cmax) worked out at 7740 ng/mL and the Tmax came to 30 min.

For `NC(=O)c1cccc(-c2cccc(OC(=O)NC3CCCCC3)c2)c1` [reference compound], the “anandamide hydrolysis allowed (percent hydrolysis normalized to control)” value on FAAH is reported as 30%.

The record behind these values is patent US20080045513A1, “C[…] INHIBITOR AND […], ANTI-INFLAMMATORY OR ANTI-PYRETIC AGENT” (N.V. Organon, priority 2006, published 2008).
